Results: patent publication US20080045463A1, “Methods For Lowering Hif-1 Mediated Gene Expression” (priority 2004, published 2008)

Assays:
[1] = tested on: HIF-1α; assay: HIF-1α hydroxyproline detection in U251 whole cell extracts; assay type: cell-based, human; conditions: U251, four hours, antibody to hydroxylated ODD region
Protocol: (§1) Protein extraction, western blot analysis, and immunocytochemistry were performed as previously described. Mouse monoclonal anti-HIF-1α antibodies were 610958 (BD Biosciences), and NB100-123 (Novus). Mouse monoclonal anti-GFP antibody was 1814460 (Roche). Mouse monoclonal anti-β-actin antibody was ab6276-100 (Abcam). Dimethyloxalylglycine was D1070 (Frontier Scientific). All other chemicals were from Sigma. Antibodies recognizing HPH homologues were from Novus biologicals and the antisera recognizing […] of HIF-1α was kindly provided by R. Freeman.
Some reactive oxygen species can also induce HIF-1α. […] Next, attention was focused on HIF-1α proline hydroxylation as a target for 2-oxoacids.

[2] = tested on: HPH; assay: HPH activity in extracts of treated U251 cells (35S-pVHL pulldown); assay type: cell-based, human
Protocol: (§2) Human HPH-1,2,3 and VHL pcDNA3.1/V5-HIS vectors (kindly provided by R. Bruick) were used for TNT Coupled Reticulocyte Lysate in vitro transcription/translation (Promega). Cytoplasmic extract for HPH activity was made by lysing cell pellets in assay buffer (20 mM Tris, pH 7.5, 5 mM KCl, 1.5 mM MgCl2, and 1 mM DTT) at 4° C. using a homogenizer, centrifuging at 20,000 g for 15 minutes and collecting supernatant for the assay. HPH enzymatic reactions were performed as previously described using either IVT products or cell extracts. This assay, chosen for its specificity for the HPH reaction, was linear over 30 minutes. For each reaction, either 7.5 μL of IVT products or 100 μg of cell extract protein were used as source of the enzyme. Activity was measured by either quantitative scintillation counting or by autoradiography after gel electrophoresis on a 10-20% Tris Glycine gradient gel (Invitrogen).
To test this U251 cells was exposed to glucose-free Krebs buffer to either hypoxia (1% O2) or 2 mM pyruvate for four hours. Nuclear HIF-1α protein accumulation was induced by both treatments (FIG. 6A). Then the cells were either returned to 21% O2 or the pyruvate was removed by extensively washing with glucose-free Krebs buffer. […]

[3] = tested on: HPH; assay: 2-Oxoglutarate: HPH binding assay; design: species or system human; conditions: addition of 200 μM ferrous iron
Protocol: Gel was washed four times with the indicated buffer. Analysis of HPH binding was measured by scintillation counting.

[4] = tested on: HIF-1α; assay: Nuclear HIF-1α accumulation in human cancer cell lines (western blot); assay type: cell-based
Protocol: Human U87, U251, U251-HRE (20) and U373 glioma cells were cultured in Eagle's MEM medium (Mediatech). […] 22B Human head and neck cancer cells were cultured in high glucose DMEM (Gibco) containing 2 mM glutamine. C6 ODD-GFP rat glioma cells were cultured in high glucose DMEM with 1.5 mg/ml G418. All culture media were supplemented with 10% fetal bovine serum and 1% (v/v) penicillin/streptomycin. Rat C6 glioma cells were cultured in high glucose DMEM. For cell hypoxia treatment, the culture dishes were sealed in a modular incubator chamber, flushed with gas containing 1% O2, 5% CO2 and 94% N2 for 5 minutes, and incubated in this environment at 37° C. for indicated times.
Protein extraction, western blot analysis, and immunocytochemistry were performed as previously described. […] Mouse monoclonal anti-β-actin antibody was ab6276-100 (Abcam). Dimethyloxalylglycine was D1070 (Frontier Scientific). All other chemicals were from Sigma.

[5] = tested on: HIF-1α; assay: HIF-1α accumulation in 22B head and neck cancer cells; assay type: cell-based, human; conditions: 22B cells, 100 μM each, last 30 minutes after 24 hours accumulation
Protocol: (§3) Human U87, U251, U251-HRE (20) and U373 glioma cells were cultured in Eagle's MEM medium (Mediatech). DU145 human prostate cancer cells and 022 human head and neck cancer cells were cultured in RPMI 1640 medium (Sigma). 22B Human head and neck cancer cells were cultured in high glucose DMEM (Gibco) containing 2 mM glutamine. C6 ODD-GFP rat glioma cells were cultured in high glucose DMEM with 1.5 mg/ml G418. All culture media were supplemented with 10% fetal bovine serum and 1% (v/v) penicillin/streptomycin. Rat C6 glioma cells were cultured in high glucose DMEM. For cell hypoxia treatment, the culture dishes were sealed in a modular incubator chamber, flushed with gas containing 1% O2, 5% CO2 and 94% N2 for 5 minutes, and incubated in this environment at 37° C. for indicated times.
as §1

[6] = tested on: HIF-1α; assay: HIF-1α decay after washout of inducer; assay type: cell-based, human; conditions: 100 μM each
Protocol: as §3, §1
To test this U251 cells was exposed to glucose-free Krebs buffer to either hypoxia (1% O2) or 2 mM pyruvate for four hours. Nuclear HIF-1α protein accumulation was induced by both treatments (FIG. 6A). […] HIF-1α immunoreactivity disappeared rapidly upon reoxygenation (return to 21% O2) of hypoxic cells as would be expected with the resumption of oxygen-dependent HIF-1α hydroxylation and proteolysis. […] To directly determine if the HPH activity in glioma cells was reversibly inactivated by pyruvate and oxaloacetate the ^35S-pVHL pulldown assay to measure HPH activity in extracts from cells treated for four hours with the 2-oxoacids was used. To capture the endogenous state of HPH activity, the cell extracts were first assayed without supplementation with exogenous reductants, ascorbate, or iron. […] The minimal HPH activity of extracts from pyruvate or oxaloacetate treated cells could also be restored by supplementation of the extracts with ascorbate or with exogenous ferrous iron (FeSO4) during the assay (FIG. 6D).

[7] = tested on: labile intracellular iron pool; assay: Calcein fluorescence assay for cellular free iron; assay type: cell-based, human; conditions: calcein loaded U251 cells
Protocol: The ability of 2-oxoacids to chelate the labile intracellular iron pool was measured using the calcein fluorescence assay as previously described. The iron chelators desferrioxamine and bipyridyl were used as positive controls.

[8] = tested on: VEGF and GLUT3; assay: RT-PCR of HIF-1 regulated genes in U87 cells; assay type: cell-based, human; conditions: U87, 5× the level normally found in MEM, 2 d
Protocol: Total RNA was isolated using the RNeasy kit (Qiagen). For RT-PCR, 1 μg of total RNA was used with the […] One-Step System (Invitrogen). VEGF, GLUT3, and β-Actin primers were described previously. For quantitative PCR analysis, the iQ SY BR Green Supermix and MyiQ Single-Color

[9] = tested on: HIF-1; assay: HIF-1 luciferase reporter assay in U251-HRE cells; assay type: cell-based, human; conditions: 2 mM 2-oxoacid, 250 μM amino acid, 8 h
[10] = tested on: HPH1, HPH2, and HPH3; assay: HPH prolyl hydroxylation assay with in vitro translated HPHs (35S-pVHL pulldown); assay type: biochemical, human; conditions: in the absence of ascorbate or other reducing agents
Protocol: as §2
To determine whether HPH activity was directly modulated by pyruvate or oxaloacetate, Pro564 hydroxylation in a biotinylated HIF-1α ODD peptide by in vitro translated HPH1, HPH2, and HPH3 was examined. The ability of streptavidin beads to pull down ^35S-pVHL bound to the biotinylated peptide was used as evidence of HIF-1α ODD peptide hydroxylation. This is the most specific and sensitive assay for HPH activity. […] Such assays can also give high background values in cell extracts.

[11] = tested on: ODD-GFP; assay: Live cell assay for oxygen-dependent degradation, ODD-GFP transfected C6 glioma cells; assay type: cell-based, rat; conditions: C6 cells in Krebs buffer; amino acids 0.5 mM
Protocol: as §3
Next a live cell assay for oxygen-dependent HIF-1α degradation using C6 rat glioma cells that had been stably transfected with a vector encoding the HIF-1 cc ODD region fused to GFP (ODD-GFP) was performed. The ODD-GFP protein is hydroxylated and degraded in an oxygen dependent manner similar to HIF-1α. As with HIF-1α, a basal, as well as, hypoxia-inducible accumulation of ODD-GFP has been reported.

[12] = tested on: HIF-1α; conditions: requires conversion to pyruvate via lactate dehydrogenase (Lu et al. 2002); cited from earlier work

COC(=O)CNC(=O)C(=O)OC [DMOG, dimethyloxalylglycine]
hydroxyproline (Pro564) in induced HIF-1α [1]: did not contain hydroxyproline | HPH activity in extracts of cells treated for four hours ([2]; U251, 2 mM pyruvate or oxaloacetate, 1 mM DMOG, no exogenous reductants, ascorbate or iron): no loss of HPH activity

O=S(=O)([O-])[O-].[Fe+2] [Fe(II)]
binding of 35S-HPH homologues to the 2-OG column [3]: doubled | HIF-1α induction by pyruvate and oxaloacetate with iron added to cultured cells ([4]; U251, Fe(II) 100 μM): prevented HIF-1α induction | NO induced HIF-1α accumulation ([4]; U251, MEM, DETA-NO 300 μM, ascorbate 100 μM, Fe(II) 100 μM, GSH 5 mM): complete inhibition | accumulated (pyruvate-enhanced) HIF-1α after supplementation [5]: Fe(II)>Fe(III) | accumulated (pyruvate-enhanced) HIF-1α after supplementation ([5]; listed as ferrous iron): diminished to a greater extent by ferrous iron than by ferric iron | HIF-1α decay following induction with pyruvate or oxaloacetate, iron in wash [6]: enhancement of HIF-1α decay | decay of NO-induced HIF-1α with iron in wash [6]: accelerated the decay | decay of accumulated HIF-1α after washing out DFO, iron added [6]: promoted decay | intracellular calcein fluorescence [7]: decrease in fluorescence | HPH activity of extracts from pyruvate or oxaloacetate treated cells, extract supplemented during assay ([2]; 100 μM each): restored

N[C@@H](CS)C(=O)O [cysteine]
basal expression of the HIF-1 regulated genes VEGF and GLUT3 [8]: lowered the basal expression | HIF-1α accumulation by hypoxia or the iron chelator DFO ([4]; FIG. 3C, 1% O2 or 150 μM DFO): did not affect | inhibition of basal HIF-1α accumulation ([4]; U87, Krebs buffer reconstituted with MEM additives at concentration normally present in MEM, four hours): key amino acids responsible for inhibiting basal HIF-1α accumulation | inhibition of HIF-1α accumulation, L- vs D-isomers and dimer ([4]; U87, four hours, glucose-free Krebs, 1 mM pyruvate or oxaloacetate, 250 μM (FIG. 3C)): effective | HIF-1α induction by glucose, pyruvate, and oxaloacetate ([4]; all cell lines used in this study (data not shown)): lowered HIF-1α induction | inhibition of basal HIF-1α accumulation in complete culture media ([4]; amino acid raised to 5× its normal level in MEM): likely endogenous inhibitors of basal HIF-1α accumulation | HRE-luciferase activity induced by pyruvate or oxaloacetate [9]: lowered HRE-luciferase activity | stimulation of HIF-1α ODD hydroxylation [10]: dose dependently stimulate HIF-1α ODD hydroxylation | ODD-GFP induction by pyruvate or oxaloacetate [11]: reduced ODD-GFP induction

CC(O)C(=O)O (stereo not shown) [lactate]
HIF-1α accumulation induced by lactate [12]: can induce HIF-1α accumulation
